Results: patent US7977375B2, “Antibiotic and method of production thereof” (Helmholtz-Zentrum Für Infektionsforschung GmbH, priority 2004, dated 2011)
Values after ≈ are worked out from the molar mass of the structure shown. Like-named read-outs stand apart in the source and are kept apart here.

What was measured:
E. faecalis ATCC 29212 [1] = test: MIC / MBC in liquid culture; type: cell-based, Enterococcus faecalis; settings: for MIC: Enterococcus faecalis
E. faecalis VRAS E305 [2] = test: agar diffusion method, inhibition zone; type: cell-based, Enterococcus faecalis; settings: Enterococcus faecalis
Protocol: (§1) The agar diffusion method employing Mueller-Hinton (MH) agar (Difco Laboratories) was used to determine effectiveness against bacteria and yeasts. Sterile paper disks (Schleicher & Schüell, Germany) were seeded with 10 μl crude extract or with a solution of purified macrolactin (final compound concentration on the disk 50 μg) and then placed on the surface of MH-agar plates that had been seeded beforehand with a suspension of overnight culture of the test microorganisms at a concentration of 10^5 cells/ml.

E. faecalis ATCC 29212 [3] = test: agar diffusion method, inhibition zone; type: cell-based, Enterococcus faecalis; settings: Enterococcus faecalis
Protocol: as §1

MRSA 2 = test: MIC / MBC in liquid culture; type: cell-based, Staphylococcus aureus; settings: for MIC: Staphylococcus aureus, read-out: MIC (minimal inhibitory concentration)
E. faecium VRAR E315 [4] = test: MIC / MBC in liquid culture; type: cell-based, Enterococcus faecium; settings: for MIC: Enterococcus faecium
B. cepacia WT139 = test: MIC / MBC in liquid culture; type: cell-based, Burkholderia cepacia
Excerpt: (§2) 7-O-malonyl macrolactin A was not effective against some of the gram-negative bacteria tested by the inventors.

B. cepacia SCV 141 [5] = test: MIC / MBC in liquid culture; type: cell-based, Burkholderia cepacia
Excerpt: as §2

B. cepacia SCV 141 [6] = test: agar diffusion method, inhibition zone; type: cell-based, Burkholderia cepacia; settings: Burkholderia cepacia, SCV141, MH agar, 18 hours at 37° C., per disk 10 μl crude extract, 50 μg macrolactin, 78 μg erythromycin, 10 μg ampicillin
Protocol: as §1
The B. cepacia strain used, which is a clinical isolate from a cystic fibrosis patient, forms small colonies (SCV 141).

[7] = system: S. aureus # (non-methicillin-resistant reference strain); test: MIC / MBC in liquid culture; type: cell-based, Staphylococcus aureus; settings: for MIC: Staphylococcus aureus, read-out: MIC (minimal inhibitory concentration)
S. aureus DSMZ 1104 = test: agar diffusion method, inhibition zone; type: cell-based, Staphylococcus aureus; settings: Staphylococcus aureus
Protocol: as §1

[8] = system: S. aureus # (own collection, methicillin-sensitive control strain); test: agar diffusion method, inhibition zone; type: cell-based, Staphylococcus aureus; settings: Staphylococcus aureus
Protocol: as §1

[9] = system: MRSA 2 (methicillin-resistant S. aureus, clinical isolate); test: agar diffusion method, inhibition zone; type: cell-based, Staphylococcus aureus; settings: Staphylococcus aureus
Protocol: as §1

[10] = system: MRSA 3 (methicillin-resistant S. aureus, clinical isolate); test: agar diffusion method, inhibition zone; type: cell-based, Staphylococcus aureus; settings: Staphylococcus aureus
Protocol: as §1

MRSA 3 = test: MIC / MBC in liquid culture; type: cell-based, Staphylococcus aureus; settings: for MIC: Staphylococcus aureus, read-out: MIC (minimal inhibitory concentration)
E. faecium VRAR E315 [11] = test: agar diffusion method, inhibition zone; type: cell-based, Enterococcus faecium; settings: Enterococcus faecium
Protocol: as §1

E. faecalis VRAS E305 [12] = test: MIC / MBC in liquid culture; type: cell-based, Enterococcus faecalis; settings: for MIC: Enterococcus faecalis
[13] = MRSA, 18 h, read-out: Inhibition zone

In the case of `CC[C@H]1OC(=O)[C@H](C)[C@@H](O[C@H]2C[C@@](C)(OC)[C@@H](O)[C@H](C)O2)[C@H](C)[C@@H](O[C@@H]2O[C@H](C)C[C@H](N(C)C)[C@H]2O)[C@](C)(O)C[C@@H](C)C(=O)[C@H](C)[C@@H](O)[C@]1(C)O` [Erythromycin, erythromycin], the MIC (E. faecalis ATCC 29212 [1]; ATCC29212, E. faecalis ATCC 29212, read-out: MIC (minimal inhibitory concentration)) is reported as 2 µg/mL (≈ 2.73 µM), the zone of inhibition at 78 µg/disc (E. faecalis VRAS E305 [2]; VRASE305, E. faecalis VRAS E305, MH agar, 18 hours at 37° C., per disk 10 μl crude extract, 50 μg macrolactin, 78 μg erythromycin, 30 μg vancomycin, 10 μg ampicillin) is reported as 0 mm and the zone of inhibition at 78 µg/disc (E. faecalis ATCC 29212 [3]; ATCC29212, E. faecalis ATCC 29212, MH agar, 18 hours at 37° C., per disk 10 μl crude extract, 50 μg macrolactin, 78 μg erythromycin, 30 μg vancomycin, 10 μg ampicillin) is reported as 25 mm. It also gave an MIC (MRSA 2; MRSA 2) of over 128 µg/mL, an MIC (E. faecium VRAR E315 [4]; VRARE315, E. faecium VRAR E315, read-out: MIC (minimal inhibitory concentration)) of 2 µg/mL (≈ 2.73 µM) and an MIC (B. cepacia WT139; Burkholderia cepacia, read-out: MIC (minimal inhibitory concentration)) of over 128 µg/mL. It also gave an MIC (B. cepacia SCV 141 [5]; Burkholderia cepacia, SCV141, read-out: MIC (minimal inhibitory concentration)) of 128 µg/mL (≈ 174 µM), a zone of inhibition at 78 µg/disc (B. cepacia SCV 141 [6]) of 0 mm and an MIC ([7]; S. aureus #) of 0.06 µg/mL (≈ 0.0818 µM). It also gave a zone of inhibition at 78 µg/disc (S. aureus DSMZ 1104; DSMZ1104, S. aureus DSMZ 1104, MH agar, 18 hours at 37° C., per disk 10 μl crude extract, 50 μg macrolactin, 78 μg erythromycin, 30 μg vancomycin, 10 μg ampicillin) of 30 mm, a zone of inhibition at 78 µg/disc ([8]; S. aureus # own collection, MH agar, 18 hours at 37° C., per disk 10 μl crude extract, 50 μg macrolactin, 78 μg erythromycin, 30 μg vancomycin, 10 μg ampicillin) of 40 mm and a zone of inhibition at 78 µg/disc ([9]; MRSA 2, MH agar, 18 hours at 37° C., per disk 10 μl crude extract, 50 μg macrolactin, 78 μg erythromycin, 30 μg vancomycin, 10 μg ampicillin) of 0 mm. The zone of inhibition at 78 µg/disc ([10]; MRSA 3, MH agar, 18 hours at 37° C., per disk 10 μl crude extract, 50 μg macrolactin, 78 μg erythromycin, 30 μg vancomycin, 10 μg ampicillin) was 0 mm, the MIC (MRSA 3; MRSA 3) was over 128 µg/mL and the zone of inhibition at 78 µg/disc (E. faecium VRAR E315 [11]; VRARE315, E. faecium VRAR E315, MH agar, 18 hours at 37° C., per disk 10 μl crude extract, 50 μg macrolactin, 78 μg erythromycin, 30 μg vancomycin, 10 μg ampicillin) was 25 mm. For the same molecule, the MIC (E. faecalis VRAS E305 [12]; VRASE305, E. faecalis VRAS E305, read-out: MIC (minimal inhibitory concentration)) was 128 µg/mL (≈ 174 µM).

Molecule `CN[C@H](CC(C)C)C(=O)N[C@H]1C(=O)N[C@@H](CC(N)=O)C(=O)N[C@H]2C(=O)N[C@H]3C(=O)N[C@H](C(=O)N[C@H](C(=O)O)c4cc(O)cc(O)c4-c4cc3ccc4O)[C@H](O)c3ccc(c(Cl)c3)Oc3cc2cc(c3O[C@@H]2O[C@H](CO)[C@@H](O)[C@H](O)[C@H]2O[C@H]2C[C@](C)(N)[C@H](O)[C@H](C)O2)Oc2ccc(cc2Cl)[C@H]1O` [Vancomycin, vancomycin] has an MIC (E. faecalis ATCC 29212 [1]; ATCC29212, read-out: MIC (minimal inhibitory concentration)) of 2 µg/mL (≈ 1.38 µM), a zone of inhibition at 30 µg/disc (E. faecalis VRAS E305 [2]; VRASE305, 18 h, read-out: Inhibition zone) of 0 mm and a zone of inhibition at 30 µg/disc (E. faecalis ATCC 29212 [3]; ATCC29212, 18 h, read-out: Inhibition zone) of 24 mm. For the same molecule, the MIC (MRSA 2; MRSA) was 2 µg/mL (≈ 1.38 µM), the MIC (E. faecium VRAR E315 [4]; VRARE315, read-out: MIC (minimal inhibitory concentration)) was over 128 µg/mL and the MIC [7] was 0.125 µg/mL (≈ 0.0863 µM). It also gave a zone of inhibition at 30 µg/disc (S. aureus DSMZ 1104; DSMZ1104, 18 h, read-out: Inhibition zone) of 20 mm, a zone of inhibition at 30 µg/disc ([8]; 18 h, read-out: Inhibition zone) of 27 mm and a zone of inhibition at 30 µg/disc [9, 13] of 24 mm. The zone of inhibition at 30 µg/disc [10, 13] was 24 mm, the MIC (MRSA 3; MRSA) was 1 µg/mL (≈ 0.69 µM) and the zone of inhibition at 30 µg/disc (E. faecium VRAR E315 [11]; VRARE315, 18 h, read-out: Inhibition zone) was 0 mm. It also gave an MIC (E. faecalis VRAS E305 [12]; VRASE305, read-out: MIC (minimal inhibitory concentration)) of over 128 µg/mL.

With Gentamycin the “MIC (minimal inhibitory concentration)” value (E. faecalis ATCC 29212 [1]; E. faecalis ATCC 29212) was 32 µg/mL, the “MIC (minimal inhibitory concentration)” value (MRSA 2; MRSA 2) was 128 µg/mL and the “MIC (minimal inhibitory concentration)” value (E. faecium VRAR E315 [4]; E. faecium VRAR E315) was 64 µg/mL. For the same molecule, the “MIC (minimal inhibitory concentration)” value (B. cepacia WT139) was over 128 µg/mL, the “MIC (minimal inhibitory concentration)” value (B. cepacia SCV 141 [5]) was over 128 µg/mL and the “MIC (minimal inhibitory concentration)” value ([7]; S. aureus #) was 0.25 µg/mL. The “MIC (minimal inhibitory concentration)” value (MRSA 3; MRSA 3) was 128 µg/mL and the “MIC (minimal inhibitory concentration)” value (E. faecalis VRAS E305 [12]; E. faecalis VRAS E305) was 64 µg/mL.
